Laboratory results published in US20170245538A1, “SOLID DISPERSION OF AMIDE FLAVOR COMPOUNDS” (Firmenich SA, priority 2014, published 2017).

Experiment: dissolution kinetics in water followed on-line by UV/Vis spectroscopy
Type: physicochemical
Details: 20 mg pure compound in 1L milli Q water at 60° C.
Description: The dissolution kinetics of example 4 in water was tested. A final concentration of (E)-3-(3,4-dimethoxyphenyl)-N-(4-methoxyphenethyl)acrylamide of 20 ppm dissolved in water was targeted. Eighty (80) mg of a solid dispersion of (E)-3-(3,4-dimethoxyphenyl)-N-(4-methoxyphenethyl)acrylamide and gum arabic was dispersed in 1L of milli Q water heated at 60° C. The solution was stirred mechanically by the means of a paddle stirrer at 200 rpm. The dissolution process was followed on-line by monitoring the UV signal of dissolved (E)-3-(3,4-dimethoxyphenyl)-N-(4-methoxyphenethyl)acrylamide with UV/Vis spectroscopy using a fiber optic probe from Ocean Optics. The powder was entirely dissolved after 2 minutes. The maximum dissolution rate during the process was 28 ppm/minute.
Comparative example: (E)-3-(3,4-dimethoxyphenyl)-N-(4-methoxyphenethyl)acrylamide pure. A final concentration of (E)-3-(3,4-dimethoxyphenyl)-N-(4-methoxyphenethyl)acrylamide of 20 ppm dissolved in water was targeted. Twenty (20) mg of the pure (E)-3-(3,4-dimethoxyphenyl)-N-(4-methoxyphenethyl)acrylamide were dispersed in 1L of milli Q water heated at 60° C. The dissolution process yielded 50% of the target concentration of 20 ppm (10 ppm) after 78 minutes. The target concentration could not be achieved after 6 hours. The concentration of dissolved (E)-3-(3,4-dimethoxyphenyl)-N-(4-methoxyphenethyl)acrylamide after 6 hours was 15 ppm (75% of target).

time to 50% of the target concentration of 20 ppm (10 ppm): 78 min
concentration of dissolved compound after 6 hours (after 6 hours): 15 ppm
dissolved compound after 6 hours as % of target (after 6 hours, target 20 ppm): 75 % of target
time to achieve the target concentration (20 ppm) (target could not be achieved): > 6 h
Structure (SMILES): COc1ccc(CCNC(=O)/C=C/c2ccc(OC)c(OC)c2)cc1 [(E)-3-(3,4-dimethoxyphenyl)-N-(4-methoxyphenethyl)acrylamide]
